Results published in ChEMBL document CHEMBL6087451, “Design, Synthesis, and Biological Evaluation of 2-Arylaminopyrimidine Derivatives as Dual Cathepsin L and JAK Inhibitors for the Treatment of Acute Lung Injury” (J Med Chem, 2025).
The source made the active and inactive calls. No cut-off for these calls is given here.

Experiments:
[1] = target: Non-receptor tyrosine-protein kinase TYK2 (Homo sapiens, UniProt P29597); assay: Inhibition of TYK2 (unknown origin) using TK-biotin as substrate incubated for 120 mins in presence of ATP by HTRF assay
Chain of Non-receptor tyrosine-protein kinase TYK2 (P29597 whole entry): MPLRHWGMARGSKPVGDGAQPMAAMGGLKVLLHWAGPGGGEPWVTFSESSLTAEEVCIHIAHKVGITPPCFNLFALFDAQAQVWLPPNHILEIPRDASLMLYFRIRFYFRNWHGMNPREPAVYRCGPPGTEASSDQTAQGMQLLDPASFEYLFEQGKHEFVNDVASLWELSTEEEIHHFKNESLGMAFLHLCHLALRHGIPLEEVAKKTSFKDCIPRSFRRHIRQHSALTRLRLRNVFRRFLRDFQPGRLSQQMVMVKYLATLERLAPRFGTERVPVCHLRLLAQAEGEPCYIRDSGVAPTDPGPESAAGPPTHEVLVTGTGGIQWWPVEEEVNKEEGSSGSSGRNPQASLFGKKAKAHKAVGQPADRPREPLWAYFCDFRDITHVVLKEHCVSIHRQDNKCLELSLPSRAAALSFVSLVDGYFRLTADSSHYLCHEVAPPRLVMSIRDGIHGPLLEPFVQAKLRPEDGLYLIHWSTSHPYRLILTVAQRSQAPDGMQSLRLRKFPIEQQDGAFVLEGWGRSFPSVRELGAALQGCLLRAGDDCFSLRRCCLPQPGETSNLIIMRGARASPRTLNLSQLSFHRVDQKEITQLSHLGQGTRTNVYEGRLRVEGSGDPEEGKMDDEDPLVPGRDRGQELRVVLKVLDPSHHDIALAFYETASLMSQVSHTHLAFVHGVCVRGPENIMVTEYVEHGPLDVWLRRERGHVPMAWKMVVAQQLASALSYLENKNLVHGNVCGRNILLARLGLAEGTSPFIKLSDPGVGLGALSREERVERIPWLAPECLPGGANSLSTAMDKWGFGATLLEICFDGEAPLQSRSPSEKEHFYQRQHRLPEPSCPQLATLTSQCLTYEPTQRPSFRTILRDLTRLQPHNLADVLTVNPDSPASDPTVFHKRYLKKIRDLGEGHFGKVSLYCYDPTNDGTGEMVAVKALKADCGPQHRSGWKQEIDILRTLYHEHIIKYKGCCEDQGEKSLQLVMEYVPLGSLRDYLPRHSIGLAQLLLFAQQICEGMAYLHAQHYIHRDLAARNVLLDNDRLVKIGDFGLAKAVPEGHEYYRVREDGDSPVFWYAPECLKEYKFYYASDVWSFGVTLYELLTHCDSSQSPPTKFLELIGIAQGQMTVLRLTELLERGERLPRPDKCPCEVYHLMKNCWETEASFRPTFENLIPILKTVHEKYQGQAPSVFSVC

RAW264.7 [2] = assay: Anti-inflammatory activity against mouse RAW264.7 cells assessed as inhibition of LPS-induced IL-6 level
[3] = Cmax in Sprague-Dawley rat at 3.5 mg/kg, ip measured for 24 hrs by LC-MS/MS analysis; assay type: ADME, organism-based; conditions: in vivo
[4] = Cmax in Sprague-Dawley rat at 3.5 mg/kg, iv measured for 24 hrs by LC-MS/MS analysis; assay type: ADME, organism-based; conditions: in vivo
RAW264.7 [5] = assay: Anti-inflammatory activity against mouse RAW264.7 cells assessed as inhibition of LPS-induced p38 phosphorylation at 50 to 500 nM by Western blot analysis; assay type: functional, cell-based; conditions: dose 50-500 nM
[6] = Oral bioavailability in Sprague-Dawley rat at 3.5 mg/kg measured for 24 hrs by LC-MS/MS analysis; assay type: ADME, organism-based; conditions: in vivo
Mus musculus [7] = assay: (§1) Anti-inflammatory activity in C57BL/6 mouse model of LPS-induced acute lung injury assessed as decrease in pulmonary edema in lung at 10 mg/kg, ip treated for 3 days followed by LPS treatment after 1 hr post-compound administration on fourth day measured after 18 hrs post-LPS treatment by H and E staining based analysis; assay type: functional, organism-based; conditions: time 91.0 hrs
Mus musculus [8] = assay: In vivo inhibition of mature CTSL in lung of C57BL/6 mouse model of LPS-induced acute lung injury at 10 to 20 mg/kg, ip treated for 3 days followed by LPS treatment after 1 hr post-compound administration on fourth day measured after 18 hrs post-LPS treatment by Western blot analysis; assay type: functional, organism-based; conditions: dose 10-20 mg/kg, time 91.0 hrs
RAW264.7 [9] = assay: Anti-inflammatory activity against mouse RAW264.7 cells assessed as inhibition of LPS-induced iNOS level by Western blot analysis; assay type: functional, cell-based; conditions: dose 50-500 nM
[10] = AUC (0 to t) in Sprague-Dawley rat at 3.5 mg/kg, ip measured for 24 hrs by LC-MS/MS analysis; assay type: ADME, organism-based; conditions: in vivo
[11] = target: Tyrosine-protein kinase JAK2 (Homo sapiens, UniProt O60674); assay: Inhibition of JAK2 (unknown origin) using TK-biotin as substrate incubated for 30 mins in presence of ATP by HTRF assay
Chain of Tyrosine-protein kinase JAK2 (O60674 whole entry): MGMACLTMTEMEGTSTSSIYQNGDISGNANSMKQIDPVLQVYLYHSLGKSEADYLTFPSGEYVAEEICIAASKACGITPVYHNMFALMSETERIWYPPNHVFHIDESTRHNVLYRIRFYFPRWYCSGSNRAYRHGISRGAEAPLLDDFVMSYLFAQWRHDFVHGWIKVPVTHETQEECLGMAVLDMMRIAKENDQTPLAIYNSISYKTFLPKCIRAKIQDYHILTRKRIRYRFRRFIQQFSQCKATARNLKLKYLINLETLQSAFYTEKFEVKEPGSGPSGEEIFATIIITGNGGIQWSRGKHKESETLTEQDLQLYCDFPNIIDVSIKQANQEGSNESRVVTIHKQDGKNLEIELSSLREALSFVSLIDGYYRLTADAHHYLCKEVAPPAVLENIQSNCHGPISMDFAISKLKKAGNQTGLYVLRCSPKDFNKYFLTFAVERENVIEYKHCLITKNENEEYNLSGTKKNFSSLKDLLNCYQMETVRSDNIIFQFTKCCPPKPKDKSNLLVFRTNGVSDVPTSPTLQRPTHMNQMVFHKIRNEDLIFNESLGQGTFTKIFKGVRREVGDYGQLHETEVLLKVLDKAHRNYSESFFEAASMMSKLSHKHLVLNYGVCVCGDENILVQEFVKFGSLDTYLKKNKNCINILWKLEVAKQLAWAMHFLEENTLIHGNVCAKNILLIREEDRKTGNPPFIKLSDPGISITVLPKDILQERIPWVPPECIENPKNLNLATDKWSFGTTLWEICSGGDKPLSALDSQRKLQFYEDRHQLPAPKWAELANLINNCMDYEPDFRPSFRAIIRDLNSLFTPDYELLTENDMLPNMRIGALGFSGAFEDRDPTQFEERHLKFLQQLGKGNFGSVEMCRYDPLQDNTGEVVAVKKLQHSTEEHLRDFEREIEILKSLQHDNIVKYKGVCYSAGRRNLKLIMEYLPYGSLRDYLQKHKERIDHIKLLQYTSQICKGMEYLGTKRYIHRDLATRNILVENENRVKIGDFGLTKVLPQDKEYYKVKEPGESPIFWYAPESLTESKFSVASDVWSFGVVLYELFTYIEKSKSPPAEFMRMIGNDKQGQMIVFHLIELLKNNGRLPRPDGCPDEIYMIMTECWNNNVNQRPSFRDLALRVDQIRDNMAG

Procathepsin L [12] = target: T1, Procathepsin L (Homo sapiens, UniProt P07711); assay: Inhibition of CTSL maturation in HBE cells pretreated for 30 mis followed by LPS treatment for 16 hrs by Western blot analysis; assay type: cell-based; conditions: dose 0.5-5 µM, time 16.5 hrs
T1 sequence (P07711 114-333 limits assumed): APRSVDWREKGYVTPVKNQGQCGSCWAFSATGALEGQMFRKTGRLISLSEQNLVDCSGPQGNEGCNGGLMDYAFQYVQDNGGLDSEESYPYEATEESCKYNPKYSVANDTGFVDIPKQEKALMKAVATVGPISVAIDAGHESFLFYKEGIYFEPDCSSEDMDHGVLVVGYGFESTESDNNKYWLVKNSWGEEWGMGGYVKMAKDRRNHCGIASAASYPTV

[13] = target: Receptor-type tyrosine-protein kinase FLT3 (Homo sapiens) (UniProt P36888); assay: Inhibition of FLT3 (unknown origin) at 1 uM by kinase profiling analysis relative to control
Chain of Receptor-type tyrosine-protein kinase FLT3 (Homo sapiens) (P36888 whole entry): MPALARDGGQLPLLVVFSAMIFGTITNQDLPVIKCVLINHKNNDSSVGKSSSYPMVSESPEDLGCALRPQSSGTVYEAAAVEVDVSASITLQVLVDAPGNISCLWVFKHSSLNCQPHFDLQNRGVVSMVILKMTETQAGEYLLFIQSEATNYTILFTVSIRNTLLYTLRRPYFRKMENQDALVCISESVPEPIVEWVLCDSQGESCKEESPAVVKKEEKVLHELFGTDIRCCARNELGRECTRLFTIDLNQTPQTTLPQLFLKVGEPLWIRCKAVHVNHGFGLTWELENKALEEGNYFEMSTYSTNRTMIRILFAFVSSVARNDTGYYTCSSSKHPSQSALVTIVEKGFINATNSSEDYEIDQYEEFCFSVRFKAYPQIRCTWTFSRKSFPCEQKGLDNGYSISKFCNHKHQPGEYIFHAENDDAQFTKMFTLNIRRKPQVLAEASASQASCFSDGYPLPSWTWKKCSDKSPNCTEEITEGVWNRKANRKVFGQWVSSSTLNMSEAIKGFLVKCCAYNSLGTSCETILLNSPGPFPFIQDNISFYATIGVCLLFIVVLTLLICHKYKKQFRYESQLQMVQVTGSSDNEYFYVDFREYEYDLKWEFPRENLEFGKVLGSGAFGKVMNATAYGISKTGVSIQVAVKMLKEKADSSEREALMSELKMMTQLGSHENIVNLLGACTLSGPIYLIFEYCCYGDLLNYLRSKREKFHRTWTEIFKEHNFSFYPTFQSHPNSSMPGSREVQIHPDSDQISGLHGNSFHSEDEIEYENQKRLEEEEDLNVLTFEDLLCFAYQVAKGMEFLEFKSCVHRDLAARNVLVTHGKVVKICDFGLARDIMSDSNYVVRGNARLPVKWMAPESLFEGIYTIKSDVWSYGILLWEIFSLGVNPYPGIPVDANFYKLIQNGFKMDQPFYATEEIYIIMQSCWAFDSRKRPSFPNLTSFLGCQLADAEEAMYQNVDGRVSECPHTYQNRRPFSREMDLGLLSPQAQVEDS

RAW264.7 [14] = assay: Anti-inflammatory activity against mouse RAW264.7 cells assessed as inhibition of LPS-induced IL-1beta level at 50 to 500 nM; assay type: functional, cell-based; conditions: dose 50-500 nM
RAW264.7 [15] = assay: Anti-inflammatory activity against mouse RAW264.7 cells transfected with CTSL siRNA assessed as inhibition of LPS-induced IL-6 level by Western blot analysis; assay type: functional, cell-based
RAW264.7 [16] = assay: Cytotoxicity against mouse RAW264.7 cells assessed as cell viability at 0.5 to 5 uM; assay type: toxicity, cell-based; conditions: raw264.7, 5 µM, dose 0.5-5 µM
HBE [17] = assay: Anti-inflammatory activity against HBE cells assessed as inhibition of LPS-induced p-Ikappa-Balpha level pretreated for 30 mis followed by LPS treatment for 16 hrs by Western blot analysis; assay type: functional, cell-based; conditions: Homo sapiens, dose 0.5-5 µM, time 16.5 hrs
Procathepsin L [18] = target: T1, Procathepsin L; assay: Induction of thermal stabilization of pro-CTSL in protein lysate extracted from human THP-1 cells pretreated for 6 hrs followed by heat exposure at 37 to 62 degreeC for 3 mins by CETSA; assay type: subcellular; conditions: time 363.0 min
[19] = Anti-inflammatory activity against HBE cells assessed as inhibition of LPS-induced IL-8 level at 5 uM pretreated for 30 mins followed by LPS treatment for 24 hrs by ELISA relative to control; assay type: functional; conditions: Homo sapiens, time 24.5 hrs
Mus musculus [20] = assay: as §1, with “disruption of epithelial cell structures” for “pulmonary edema”; assay type: functional, organism-based; conditions: time 91.0 hrs
Mus musculus [21] = assay: as §1, with “TNF-alpha mRNA level” for “pulmonary edema”, “RT-qPCR” for “H and E staining based”; assay type: functional, organism-based; conditions: time 91.0 hrs
RAW264.7 [22] = assay: Anti-inflammatory activity against mouse RAW264.7 cells assessed as inhibition of LPS-induced COX-2 level by Western blot analysis; assay type: functional, cell-based; conditions: dose 50-500 nM
RAW264.7 [23] = assay: Anti-inflammatory activity against mouse RAW264.7 cells assessed as inhibition of LPS-induced IL-1beta mRNA level at 50 to 500 nM by RT-qPCR analysis; assay type: functional, cell-based; conditions: dose 50-500 nM
Mus musculus [24] = assay: as §1, with “IL-1beta mRNA level” for “pulmonary edema”, “RT-qPCR” for “H and E staining based”; assay type: functional, organism-based; conditions: time 91.0 hrs
[25] = Half life in Sprague-Dawley rat at 3.5 mg/kg, iv measured for 24 hrs by LC-MS/MS analysis; assay type: ADME, organism-based; conditions: in vivo
[26] = Half life in Sprague-Dawley rat at 3.5 mg/kg, ip measured for 24 hrs by LC-MS/MS analysis; assay type: ADME, organism-based; conditions: in vivo
[27] = AUC (0 to t) in Sprague-Dawley rat at 3.5 mg/kg, po measured for 24 hrs by LC-MS/MS analysis; assay type: ADME, organism-based; conditions: in vivo
[28] = Cmax in Sprague-Dawley rat at 3.5 mg/kg, po measured for 24 hrs by LC-MS/MS analysis; assay type: ADME, organism-based; conditions: in vivo
Mus musculus [29] = assay: Anti-inflammatory activity in C57BL/6 mouse model of LPS-induced acute lung injury assessed as decrease in number of total cells in BALF at 10 mg/kg, ip treated for 3 days followed by LPS treatment after 1 hr post-compound administration on fourth day measured after 18 hrs post-LPS treatment; assay type: functional, organism-based; conditions: time 91.0 hrs
HBE [30] = assay: Anti-inflammatory activity against HBE cells assessed as inhibition of LPS-induced p-p65 level pretreated for 30 mis followed by LPS treatment for 16 hrs by Western blot analysis; assay type: functional, cell-based; conditions: Homo sapiens, dose 0.5-5 µM, time 16.5 hrs
[31] = Anti-inflammatory activity against HBE cells assessed as inhibition of LPS-induced IL-6 level at 5 uM pretreated for 30 mins followed by LPS treatment for 24 hrs by ELISA relative to control; assay type: functional; conditions: Homo sapiens, time 24.5 hrs
Mus musculus [32] = assay: Anti-inflammatory activity in C57BL/6 mouse model of LPS-induced acute lung injury assessed as decrease in total protein concentration in BALF at 10 mg/kg, ip treated for 3 days followed by LPS treatment after 1 hr post-compound administration on fourth day measured after 18 hrs post-LPS treatment; assay type: functional, organism-based; conditions: time 91.0 hrs
RAW264.7 [33] = assay: Anti-inflammatory activity against mouse RAW264.7 cells assessed as inhibition of LPS-induced IL-6 mRNA level at 50 to 500 nM by RT-qPCR analysis; assay type: functional, cell-based; conditions: dose 50-500 nM

IC50 [1]: 173 nM
IC50 (RAW264.7 [2]): 50.1 nM
Cmax [3]: 193 ng/mL
Cmax [4]: 655 ng/mL
bioavailability [6]: 24.9%
AUC(0-t) at 24 h [10]: 407 ng·h/mL
IC50 [11]: 5.25 nM
inhibition (Procathepsin L [12]): Dose-dependent-effect
inhibition [13]: 103%
Activity (Procathepsin L [18]): Active
half-life [25]: 8.29 h
half-life [26]: 4.73 h
AUC(0-t) at 24 h [27]: 157 ng·h/mL
Cmax [28]: 65.2 ng/mL
Compound: Cl.Cn1cc(-c2ccnc(Nc3cccc(N)c3)n2)c2ccccc21
inhibition (RAW264.7 [5]): Active; Result Indicates Compound Suppresses Mapk Pathway
Activity (Mus musculus [7]): Active
inhibition (Mus musculus [8]): Active
inhibition (RAW264.7 [9]): Dose-dependent-effect
inhibition (RAW264.7 [14]): Active
inhibition (RAW264.7 [15]): inactive
Activity (RAW264.7 [16]): Non-toxic
inhibition (HBE [17]): Dose-dependent-effect
inhibition at 5 µM [19]: 85%
Activity (Mus musculus [20]): Active
Activity (Mus musculus [21]): Active
inhibition (RAW264.7 [22]): Dose-dependent-effect
inhibition (RAW264.7 [23]): Active
Activity (Mus musculus [24]): Active
Activity (Mus musculus [29]): Active
inhibition (HBE [30]): Dose-dependent-effect
inhibition at 5 µM [31]: 83%
Activity (Mus musculus [32]): Active
inhibition (RAW264.7 [33]): Active
